Test results published in patent US20230310445A1, “LOX ENZYME INHIBITING METHODS AND COMPOSITIONS” (ANOVIA BIOSCIENCES, INC., priority 2020, published 2023).
Like-named read-outs stand apart in the source and are kept apart here.

Assay: PK study following IV and PO administration in male CD1 mice
Format: in vivo, mouse
Parameters: AUClast/D: unit: (ng*h/mL)/(mg/kg)
Conditions: for AUClast/D / CIobs / AUC(0-inf) / AUC(0-t) / C0 / half-life / MRT inf / Vd / Cmax / Tmax: plasma, mean of three mice; for CIobs: unit assumed; for F: PO 50 mg/kg versus IV 10 mg/kg; for AUC(0-inf) / AUC(0-t) / C0 / half-life / MRT inf / Vd / Cmax / Tmax: mouse; for MRT inf: read-out: MRTInf—obs; for Vd: read-out: Vss—obs
Description: The objective of this study was to determine the pharmacokinetic (PK) profile of LOX enzyme inhibiting compounds following IV and PO administrations in male CD1 mice.
Male CDT mice from a qualified provider were used for all studies. Mice were 6-8 weeks old at the time of the experiment (˜20-30 g body weight). All animals for IV & PO administration were fasted overnight and fed after 4 hours collection. The dose formulation was kept at room temperature no more than 2 hours.
Dose formulations were prepared fresh on the day of dosing and stored at ambient temperature. Dose formulations were as following: […]
Blood samples were collected from the dorsal metatarsal vein. Circa 0.03 mL were collected per time point and 0.3 mL at final time point via heart puncture. The blood samples were centrifuged at 4000 g for 5 minutes at 4° C. to obtain plasma and samples were immediately frozen in the upright position and stored at −75±15° C. prior to analysis.
Blood samples were collected at time points outlined in Table 12:
Acceptable time ranges for blood collection were as following: 5 min and 15 min: within +0.25 minute, 30 min, 1 hour, and 2 hours: within +2 minutes; 4 hours, 6 hours, 8 hours, and 24 hours: within +10 minutes.
Concentrations of LOX enzyme inhibiting compounds in the plasma were analyzed using a LC-MS/MS method. WinNonlin (Phoenix™, version 8.2) software was used for pharmacokinetic calculations. The following pharmacokinetic parameters were calculated, whenever possible from the plasma concentration versus time data:
IV administration: T1/2, C0, AUClast, AUCinf, MRTinf, Cl, Vss, Number of Points for Regression.
PO administration: T1/2, Cmax, Tmax, AUClast, AUCinf and F. Number of Points for Regression.
The pharmacokinetic data were described using descriptive statistics such as mean, standard deviation.
Results are outlined in Table 13 (IV), Table 14 (PO) and FIGS. 1-3. Data represent mean values from three mice.

SMILES: CN(C)C(=O)N1C[C@@H](c2ccccc2)C[C@@H](S(=O)(=O)c2cccc(CN)c2)C1.O=C(O)C(F)(F)F (racemic) [Example 74, cis-3-((3-(Aminomethyl)phenyl)sulfonyl)-N,N-dimethyl-5-phenylpiperidine-1-carboxamide 2,2,2-trifluoroacetate]
- AUClast/D (IV, 10 mg/kg): 196
- CIobs (IV, 10 mg/kg): 85.5 mL/min/kg
- F: 90
- AUClast/D (PO, 50 mg/kg): 138
- AUC(0-inf) (IV, 10 mg/kg): 1970 ng·h/mL
- AUC(0-t) (IV, 10 mg/kg): 1960 ng·h/mL
- C0 (IV, 10 mg/kg): 3590 ng/mL
- half-life (IV, 10 mg/kg): 53.4 min
- MRT inf (IV, 10 mg/kg): 41.5 min
- Vd (IV, 10 mg/kg): 3.55 L/kg
- AUC(0-inf) (PO, 50 mg/kg): 8860 ng·h/mL
- AUC(0-t) (PO, 50 mg/kg): 8850 ng·h/mL
- Cmax (PO, 50 mg/kg): 5550 ng/mL
- Tmax (PO, 50 mg/kg): 25 min
- half-life (PO, 50 mg/kg): 49.3 min
- MRT inf (PO, 50 mg/kg): 74.4 min

SMILES: NCc1ccnc(S(=O)(=O)N2C[C@@H](C(=O)N3CCS(=O)(=O)CC3)C[C@@H](C3CCCCC3)C2)c1.O=C(O)C(F)(F)F (racemic) [Example 146, cis-(1-((4-(Aminomethyl)pyridin-2-yl)sulfonyl)-5-cyclohexylpiperidin-3-yl)(1,1-dioxidothiomorpholino)methanone 2,2,2-trifluoroacetate]
- AUClast/D (IV, 10 mg/kg): 164
- CIobs (IV, 10 mg/kg): 103 mL/min/kg
- F: 7.2
- AUClast/D (PO, 50 mg/kg): 11.3
- AUC(0-inf) (IV, 10 mg/kg): 1650 ng·h/mL
- AUC(0-t) (IV, 10 mg/kg): 1640 ng·h/mL
- C0 (IV, 10 mg/kg): 6150 ng/mL
- half-life (IV, 10 mg/kg): 287 min
- MRT inf (IV, 10 mg/kg): 51 min
- Vd (IV, 10 mg/kg): 5.12 L/kg
- AUC(0-inf) (PO, 50 mg/kg): 590 ng·h/mL
- AUC(0-t) (PO, 50 mg/kg): 563 ng·h/mL
- Cmax (PO, 50 mg/kg): 503 ng/mL
- Tmax (PO, 50 mg/kg): 15 min
- half-life (PO, 50 mg/kg): 337 min
- MRT inf (PO, 50 mg/kg): 221 min
